Marks after values point to notes of the source that are not given here.

For experiment [1], the system named is Wt and RKIP-tg mice. Kind of experiment: Left ventricular catheterization with esmolol infusion. Type of experiment: in vivo, mouse. As to the method: For left ventricular pressure measurements we inserted a 1.4F pressure catheter (Millar Instruments) into the right carotid artery and advanced it to the left ventricular chamber. During measurement we injected esmolol (12 μg/min for 1 min) or dobutamine (in increasing doses: 75, 150, 375, 750 and 1500 ng/min) into the V. jugularis. We analyzed data using the Chart software (Chart5.4, AD Instruments) as previously described^60. We excluded mice with heart rates below 450 bpm (or below 430 bpm in the case of β1KO or RKIP-tg/β1KO mice).

Experiment [2] deals with RyR2, PLN and TnI phosphorylation. Kind of experiment: Isoproterenol infusion with or without ICI 118,551, immunoblot of heart lysates. Format: in vivo, mouse. From the text:
Immunoblot quantification of (a) pPLN(S16), (b) pTnI (SS23/24), (c) pRyR2(S2808) and pRyR2(S2814) in heart lysates of untreated (Con) and isoproterenol-treated mice and mice treated with Iso in combination with ICI 118,551. pPLN(S16), n=13; pTnI(SS23/24), n=11; pRyR2(S2808), n=12; n are mice per group; mean±SEM; *, p<0.05 vs. Con. Immunoblot analysis of Con vs. Iso for RyR2 phosphorylation (pRyR2[S2808] and pRyR2[S2814]) show significant differences when a t-test analysis is applied (#, p<0.05 vs. Con).
We intravenously infused isoproterenol (1.1 μg/min for 2 min) with or without ICI 118,551 (0.14 μg/min for 2 min) via the V. jugularis as indicated. We pretreated mice with pertussis toxin (PTX; 300 μg/kg body weight; i.p) for 24 h as indicated. Mice were sacrificed and hearts were used for Western blot analyses. Efficiency of Gαi inhibition by PTX was evaluated by in vitro PTX-catalyzed ADP ribosylation in the presence of [^32P]-nicotinamide adenine dinucleotide ([^32P]NAD). […] After filtration through a 200 μm-mesh, we determined the protein content of the tissue homogenate and then incubated 30 μg of protein with 0.1 μM [^32P]NAD (800 Ci/mmol) in a buffer containing 20 mM Tris-HCl (pH7.6), 15 mM thymidine, 1 mM EDTA, 1 mM ATP, 0.1 mM GDP and 1 μg of PTX (preactivated) for 1 h at 30° C. […] Proteins were separated on SDS-PAGE and incorporated [^32P] was assessed by Phospholmager analysis. […]

The test system of experiment [3] is RKIP-tg mice. The experiment can be described thus: Chronic isoproterenol infusion via osmotic minipumps in RKIP-tg mice (echocardiography, interstitial fibrosis). To be noted: mean ± SEM. Type of experiment: in vivo, mouse. The procedure: (§1) Echocardiographic measurements and histological analysis of interstitial fibrosis of wild-type (Wt) and RKIP transgenic (RKIP-tg) mice before and after 4 weeks of isoproterenol application via osmotic minipumps (Iso; 30 mg/kg/d). Shown are measurements of wall thicknesses (interventricular septal [IVS] and left ventricular posterior wall [LVPW]), left ventricular internal dimension (LVID), fractional shortening (FS), ejection fraction (EF), heart rates and the quantification of interstitial fibrosis (arbitrary units) of Sirius Red-stained left ventricular myocyrdial sections. Values represent mean (±SEM); *, p<0.05 vs. Con; #, p<0.05 vs. Wt Iso; $, p<0.05 vs. Wt Con. n represent the number of mice (for the analysis of interstitial fibrosis one transverse section was analyzed per mouse).
(§2) Osmotic minipumps (Alzet, model 1004) were implanted subcutaneously in male 8-week old Wt and RKIP-tg mice (C57/BL/6J background). The implanted pumps continuously released isoproterenol for 4 weeks (30 mg/kg body weight/day).
(§3) We performed transthoracic echocardiograms in a blinded manner using the Vevo700 or Vevo2100 high-resolution imaging systems (VisualSonics) and a 30-MHz probe. We obtained values for end-diastolic septal and posterior wall thicknesses as well as end-diastolic and -systolic internal diameters from 2D M-mode images in the short axis view at the proximal level of the papillary muscles. We obtained peak blood flow velocities at the site of TAC [Vmax (millimetres per second)] from pulsed-waved Doppler measurements. We calculated fractional shortening (FS), ejection fraction (EF), and aortic pressure gradients (mmHg) by VisualSonics Cardiac Measurements software. The shown data represent averages of at least six cardiac cycles per animal. We excluded mice with heart rates below 450 bpm (or below 430 bpm in the case of β1KO or RKIP-tg/(β1KO mice).
(§4) After fixation of hearts in 4% (m/v) paraformaldehyde, hearts were embedded in paraffin. Sections (2 μm) were stained with haematoxylin and eosin or with Sirius Red as described previously^60. For quantification of fibrosis, we stained left ventricular sections with Sirius Red and subsequently analyzed […] by semi-automated image analyses in blinded manner. For immunostaining, we used Vectastain Elite ABC Reagent with biotinylated goat-anti-rabbit IgG in combination with diaminobenzidine (DAB) and glucose oxidase (Sigma) similarly as described previously^60,61. We counterstained nuclei with haematoxylin.

For experiment [4], the system named is Wt mice. Kind of experiment: Chronic isoproterenol infusion via osmotic minipumps in Wt mice (echocardiography, interstitial fibrosis). Format: in vivo, mouse. As to conditions: mean ± SEM. The procedure: as §1, §2, §3, §4
Experiment [5] deals with RKIP. Kind of experiment: RKIP activation (Ser153 phosphorylation, pRKIP) in neonatal rat cardiomyocytes (Western blot). Format: cell-based. To be noted: NRCM, 25 and 75 μg/ml, 30 h. As to the method: NRCM were treated with rituximab (25 μg u. 75 μg/ml) or bevacizumab (25 μg u. 75 μg/ml) for 30 h and Western blot analysis performed. Gβ was used as loading control.
NRCM were treated with rituximab (25 μg u. 75 μg/ml) for 30 h and Western blot analysis and quantification using ImageJ was performed. Gβ was used as loading control. SEM, n=3, *, p=0.0004
NRCM were treated with rituximab (25 μg u. 75 μg/ml) for 30 h and Western blot analysis and quantification using ImageJ was performed. Gβ was used as loading control. SEM, n=4, *, p=0.0004
We homogenized left ventricular tissue or cells in lysis buffer (1% [v/v] Triton-X-100, 5 mM EDTA, 300 mM NaCl, 50 mM Tris [pH7.4], supplemented with protease and phosphatase inhibitors). We removed cell debris by centrifugation (10 min, 1000×g, 4° C.) and used lysates for Western blot analysis: We determined protein concentrations and used equal amounts of protein for immunoblot analysis. We separated proteins by SDS-PAGE and transferred them to PVDF membranes. […] To average our immunoblot experiments and to present semi-quantitative results, we quantified immunoblot signals using ImageJ. […]

Experiment [6] concerns RKIP. The experiment can be described thus: RKIP expression in neonatal rat cardiomyocytes (Western blot). Type of experiment: cell-based. To be noted: NRCM, 75 μg/ml, 30 h. As to the method: 500 000 NRCM/Well were plated in 12 Well plates, cultured for 24 h and subsequently treated with the indicated compounds for 30 h inkubiert. Cells were lysed, Western blots performed and signals were quantified using ImageJ (n=11). Shown are SEM; *. p=0.0003
We homogenized left ventricular tissue or cells in lysis buffer (1% [v/v] Triton-X-100, 5 mM EDTA, 300 mM NaCl, 50 mM Tris [pH7.4], supplemented with protease and phosphatase inhibitors). We removed cell debris by centrifugation (10 min, 1000×g, 4° C.) and used lysates for Western blot analysis: We determined protein concentrations and used equal amounts of protein for immunoblot analysis. We separated proteins by SDS-PAGE and transferred them to PVDF membranes. We blocked membranes for 1 h with 5% (w/v) fat-free milk dissolved in 10 mM Tris (pH7.6), 100 mM NaCl and 0.1% (v/v) Tween-20, incubated membranes with primary antibodies overnight at 4° C., thereafter with secondary antibodies conjugated with horseradish peroxidase (HRP) and used the Pierce™ ECL Plus Western blotting kit for detection. To average our immunoblot experiments and to present semi-quantitative results, we quantified immunoblot signals using ImageJ.
For the detection of RKIP phosphorylation (“activation as GRK2 inhibitor”), we used antibodies directed againt Ser153-phosphorylation of RKIP (pRKIP[hSer153], sc-32623, Santa Cruz Biotechnology; pRKIP [rSer153], sc-32622, Santa Cruz Biotechnology). For RKIP expression levels we used antibodies directed against RKIP (RKIP, sc5422, Santa Cruz Biotechnology; RKIP antibodies raised against recombinant GST-RKIP as antigen (Lorenz et al., 2003).
We tested an anti-CD20 antibody (such as rituximab) and an anti-VEGF antibody (such as bevacizumab) and several other therapeutic antibodies (obtained from the hospital pharmacy, Uniklinik Wiirzburg) on RKIP expression and RKIP activation (Ser153 phosphorylation) in neonatal rat cardiomyocytes as well as cardiomyocyte contractility.

In experiment [7] the test system is neonatal rat cardiomyocytes (NRCM). The experiment can be described thus: Contractile activity of neonatal rat cardiomyocytes. Type of experiment: cell-based. To be noted: in the presence of isoprenaline (50 nM), 33° C., beats per minute. As to the method: NRCM were cultured for 24 h and transduced as indicated with a control virus (LacZ) or a virus encoding RKIP-wt and/or treated with rituximab as indicated. The spontaneous contractions were measured at 33° C. for one minute and normalized for each experiment to LacZ under unstimulated conditions. NRCM were then stimulated with isoproterenol (50 nM) and after 2 min contractions were counted again. SEM; *, p<0.0001, n=5
Neonatal rat cardiomyocytes were isolated as described (Lorenz et al. Nature 2003, 426:574-579; Vidal et al., Cardiovasc. Res. 2012, 96:255-264). Cardiomyocytes were transduced by adenoviruses or treated with indicated antibodies. To monitor the contractile activity of cardiomyocytes, live cells were examined on a Zeiss Axiovert 135 microscope.

Where [8] appears, read: 4 weeks isoproterenol 30 mg/kg/d via osmotic minipumps.
The mark [9] stands for this setting: 4 weeks isoproterenol 30 mg/kg/d, Sirius Red-stained left ventricular sections.

With `COC(=O)CCc1ccc(OCC(O)CNC(C)C)cc1` (stereo not drawn) [Esmolol, esmolol], the “rates of contraction and relaxation (dP/dtmax, dP/dtmin)” value in experiment [1] (esmolol 12 μg/min for 1 min, RKIP-tg mice) was “largely attenuated increased rates of contraction and relaxation”. In experiment [1] (esmolol 12 μg/min for 1 min into V. jugularis, Wt and RKIP-tg mice), the heart rates entry is recorded as “effectively reduced heart rates”.

In the case of `Cc1ccc(OCC(O)C(C)NC(C)C)c2c1CCC2` (stereo not drawn) [ICI 118,551], in experiment [2] (isoproterenol plus ICI 118,551 (0.14 μg/min for 2 min i.v.) vs. isoproterenol alone), the “RyR2(S2808/S2814) phosphorylation” value is “much stronger phosphorylation of RyR2”. In addition, the “PLN and TnI phosphorylation” value in experiment [2] (isoproterenol plus ICI 118,551 vs. isoproterenol alone) was “hardly affected PLN and TnI phosphorylation”.

For the molecule `CC(C)NCC(O)c1ccc(O)c(O)c1` (stereo not drawn) [Iso, isoproterenol], in experiment [3] (setting [8]), the EF was 87.1 ± 1.64*^# %; the FS is 55.9 ± 1.98*^# % of LVID; the Heart rate is recorded as 668 ± 21* bpm; the “IVS, end-diastolic” value is 0.81 ± 0.026* mm. Moreover, in experiment [3] (setting [8]), the “LVID, end-diastolic” value is listed as 3.08 ± 0.086 mm and the “LVPW, end-diastolic” value is listed as 0.84 ± 0.022* mm. The Interstitial fibrosis in experiment [3] (setting [9]) was 1.05 ± 0.263*^# arbitrary units. Further, in experiment [4] (setting [8]), the EF was 73.0 ± 2.52^$ %; the FS was 41.6 ± 2.00^$ % of LVID; the Heart rate is 654 ± 25* bpm; the “IVS, end-diastolic” value was 0.74 ± 0.039* mm. Further, in experiment [4] (setting [8]), the “LVID, end-diastolic” value is 3.69 ± 0.172 mm and the “LVPW, end-diastolic” value was 0.76 ± 0.036* mm. The Interstitial fibrosis in experiment [4] (setting [9]) was 2.05 ± 0.336* arbitrary units.

“bevacizumab: anti-VEGF antibody, recombinant humanized monoclonal IgG1”: in experiment [5], the “"active" RKIP (Ser153-phosphorylation)” value is “increased”. Moreover, the RKIP expression result in experiment [6] was “most up-regulation of RKIP expression”.

For panitumumab: anti-EGFR antibody, the RKIP expression result in experiment [6] is listed as “up-regulation of RKIP expression”.

As for rituximab: anti-CD20 antibody, in experiment [7], the NRCM contractility result is reported as “increased NRCM contractility”. Besides, in experiment [5], the “"active" RKIP (Ser153-phosphorylation)” value is recorded as “increased”. For the same molecule, the RKIP expression entry in experiment [6] is listed as “even more prominent up-regulation of RKIP”.

These data come from US20180179292A1, “RKIP AGONISM IN THE TREATMENT AND PREVENTION OF HEART FAILURE” (Leibniz-Institut für analytische Wissenschaften- ISAS-e.V., priority 2015, published 2018).
